Data as given in ChEMBL document CHEMBL3627665, “Challenges and Opportunities in the Discovery of New Therapeutics Targeting the Kynurenine Pathway” (J Med Chem, 2015).
pIC50: −log10 of the molar value. Each block holds one compound with its values, some of them ahead of it.

What was measured:
[1] = target: Tryptophan 2,3-dioxygenase (Mus musculus, UniProt P48776); assay: Inhibition of mouse TDO
[2] = target: Indoleamine 2,3-dioxygenase 1 (Mus musculus, UniProt P28776); assay: Inhibition of mouse IDO1
Chain of Indoleamine 2,3-dioxygenase 1 (P28776 whole entry): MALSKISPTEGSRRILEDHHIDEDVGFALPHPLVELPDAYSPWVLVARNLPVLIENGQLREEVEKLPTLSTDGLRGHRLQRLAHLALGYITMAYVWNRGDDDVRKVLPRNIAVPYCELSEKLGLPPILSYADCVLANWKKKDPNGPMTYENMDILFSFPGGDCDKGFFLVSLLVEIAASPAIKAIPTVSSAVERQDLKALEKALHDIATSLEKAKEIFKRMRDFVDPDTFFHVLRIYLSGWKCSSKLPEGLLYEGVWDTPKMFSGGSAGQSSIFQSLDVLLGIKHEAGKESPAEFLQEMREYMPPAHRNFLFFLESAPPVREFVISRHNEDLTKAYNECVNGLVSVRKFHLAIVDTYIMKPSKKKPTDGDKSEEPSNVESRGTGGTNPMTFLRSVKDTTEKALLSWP

[3] = target: Tryptophan 2,3-dioxygenase (Homo sapiens, UniProt P48775); assay: Inhibition of TDO (unknown origin)
Chain of Tryptophan 2,3-dioxygenase (Homo sapiens, UniProt P48775) (P48775 whole entry): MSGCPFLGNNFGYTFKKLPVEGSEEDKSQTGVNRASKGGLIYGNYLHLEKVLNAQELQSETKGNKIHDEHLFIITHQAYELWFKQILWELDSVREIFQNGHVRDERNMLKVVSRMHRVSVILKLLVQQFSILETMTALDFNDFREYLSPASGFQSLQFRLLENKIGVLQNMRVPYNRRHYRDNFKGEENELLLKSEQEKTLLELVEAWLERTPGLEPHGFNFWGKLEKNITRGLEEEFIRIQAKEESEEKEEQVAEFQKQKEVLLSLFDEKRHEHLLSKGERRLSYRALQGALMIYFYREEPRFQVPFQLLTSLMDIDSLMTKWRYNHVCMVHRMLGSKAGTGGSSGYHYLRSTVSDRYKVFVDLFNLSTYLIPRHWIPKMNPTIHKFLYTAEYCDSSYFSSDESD

[4] = target: Kynurenine/alpha-aminoadipate aminotransferase, mitochondrial (Rattus norvegicus, UniProt Q64602); assay: Inhibition of rat KAT-2
Chain of Kynurenine/alpha-aminoadipate aminotransferase, mitochondrial (Q64602 whole entry): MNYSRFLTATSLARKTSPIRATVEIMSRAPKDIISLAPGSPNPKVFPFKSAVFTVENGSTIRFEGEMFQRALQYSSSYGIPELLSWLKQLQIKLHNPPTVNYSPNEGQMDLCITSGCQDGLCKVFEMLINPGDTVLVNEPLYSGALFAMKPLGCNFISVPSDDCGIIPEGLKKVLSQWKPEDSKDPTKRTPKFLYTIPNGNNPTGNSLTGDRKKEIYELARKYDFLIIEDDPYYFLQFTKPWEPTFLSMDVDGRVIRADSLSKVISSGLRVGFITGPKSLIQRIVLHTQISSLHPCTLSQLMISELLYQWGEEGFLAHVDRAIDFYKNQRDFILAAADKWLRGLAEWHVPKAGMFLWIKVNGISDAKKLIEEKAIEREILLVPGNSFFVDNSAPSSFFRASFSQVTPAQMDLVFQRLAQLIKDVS

[5] = target: Kynurenine 3-monooxygenase (Homo sapiens, UniProt O15229); assay: Inhibition of human KMO
Chain of Kynurenine 3-monooxygenase (Homo sapiens, UniProt O15229) (O15229 whole entry): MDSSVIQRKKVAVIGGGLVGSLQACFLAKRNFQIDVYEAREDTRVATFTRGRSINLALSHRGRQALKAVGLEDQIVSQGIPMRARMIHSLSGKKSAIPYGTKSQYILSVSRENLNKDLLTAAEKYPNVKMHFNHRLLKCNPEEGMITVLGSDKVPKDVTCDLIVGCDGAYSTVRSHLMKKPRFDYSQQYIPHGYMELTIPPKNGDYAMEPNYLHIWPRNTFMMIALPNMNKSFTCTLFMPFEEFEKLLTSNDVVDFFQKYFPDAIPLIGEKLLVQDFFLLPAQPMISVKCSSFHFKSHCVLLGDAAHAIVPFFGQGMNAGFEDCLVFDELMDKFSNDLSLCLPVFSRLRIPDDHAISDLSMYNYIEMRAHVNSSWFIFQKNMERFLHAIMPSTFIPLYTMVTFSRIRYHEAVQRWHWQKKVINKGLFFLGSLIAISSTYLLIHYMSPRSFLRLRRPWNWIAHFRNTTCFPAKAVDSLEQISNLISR

[6] = target: T1, Kynurenine 3-monooxygenase (Saccharomyces cerevisiae (strain ATCC 204508 / S288c) (Baker's yeast), UniProt P38169); assay: Inhibition of yeast KMO
T1 sequence (P38169 whole entry): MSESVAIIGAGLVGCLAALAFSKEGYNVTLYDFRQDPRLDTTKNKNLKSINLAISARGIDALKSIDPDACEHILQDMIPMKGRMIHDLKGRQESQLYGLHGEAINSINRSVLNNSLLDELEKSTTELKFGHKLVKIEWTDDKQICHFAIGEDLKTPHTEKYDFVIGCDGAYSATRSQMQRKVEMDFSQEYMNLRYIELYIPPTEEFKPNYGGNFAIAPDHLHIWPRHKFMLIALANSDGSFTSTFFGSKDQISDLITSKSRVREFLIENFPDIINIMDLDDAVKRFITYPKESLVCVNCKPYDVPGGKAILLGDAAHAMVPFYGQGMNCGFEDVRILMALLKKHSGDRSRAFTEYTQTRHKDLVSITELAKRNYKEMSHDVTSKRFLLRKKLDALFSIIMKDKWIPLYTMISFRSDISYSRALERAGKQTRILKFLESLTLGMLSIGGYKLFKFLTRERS

[7] = target: T2, Indoleamine 2,3-dioxygenase 2 (Homo sapiens, UniProt Q6ZQW0); assay: Inhibition of human IDO2
T2 sequence (Q6ZQW0 whole entry): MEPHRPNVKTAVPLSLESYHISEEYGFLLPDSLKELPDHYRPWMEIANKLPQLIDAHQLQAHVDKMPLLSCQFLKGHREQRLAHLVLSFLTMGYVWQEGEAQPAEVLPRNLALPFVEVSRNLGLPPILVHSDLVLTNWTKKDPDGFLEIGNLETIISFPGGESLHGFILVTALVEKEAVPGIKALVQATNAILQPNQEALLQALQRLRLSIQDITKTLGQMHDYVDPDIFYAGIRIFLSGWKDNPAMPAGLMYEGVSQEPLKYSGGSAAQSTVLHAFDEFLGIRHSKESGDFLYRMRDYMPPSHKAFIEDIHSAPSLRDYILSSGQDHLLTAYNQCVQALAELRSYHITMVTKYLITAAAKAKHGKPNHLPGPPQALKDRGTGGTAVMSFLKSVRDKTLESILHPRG

Chain of Tryptophan 2,3-dioxygenase (Mus musculus, UniProt P48776) (P48776 whole entry): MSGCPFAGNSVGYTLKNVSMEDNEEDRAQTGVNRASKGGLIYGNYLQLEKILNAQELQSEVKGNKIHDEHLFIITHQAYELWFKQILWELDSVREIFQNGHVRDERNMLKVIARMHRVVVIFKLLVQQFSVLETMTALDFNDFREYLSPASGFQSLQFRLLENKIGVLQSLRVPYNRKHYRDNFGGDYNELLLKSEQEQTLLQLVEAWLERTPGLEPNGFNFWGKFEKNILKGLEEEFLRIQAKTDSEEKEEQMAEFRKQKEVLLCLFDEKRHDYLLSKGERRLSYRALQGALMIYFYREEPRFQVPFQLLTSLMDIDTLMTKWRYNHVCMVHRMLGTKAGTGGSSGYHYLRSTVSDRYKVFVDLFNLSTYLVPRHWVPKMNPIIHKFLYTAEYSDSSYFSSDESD

Compound: Fc1ccc2c(/C=C/c3nnn[nH]3)c[nH]c2c1
pIC50 [1]: 5.71
pIC50 [2]: < 3.40

Compound: Fc1ccc2c(/C=C/c3cccnc3)c[nH]c2c1
pIC50 [1]: 5.84
pIC50 [2]: < 4.10

Compound: O=C(CC1c2ccccc2-c2cncn21)C1CCCCC1 (stereo unspecified)
pIC50 [3]: > 6.00

Compound: O=C1NC(=O)/C(=C/c2cccc(-c3ccc4c5c3CCC(=O)N5CC4)c2)S1
pIC50 [4]: 4.87

More lines, now with the values ahead:

pIC50 [4]: 4.15
Compound: CCS(=O)(=O)c1ccc(C(=O)C[C@H](N)C(=O)O)cc1

pIC50 [5]: 7.70
pIC50 [6]: 7.13
Compound: O=C(O)C1CC1C(=O)c1ccc(Cl)c(Cl)c1 (stereo unspecified)

pIC50 [7]: < 3.60
pIC50 [3]: < 4.20
Compound: Cc1ccc(-c2csc3nnc(SCC(=O)Nc4ccc5c(c4)OCO5)n23)cc1
